Columns and labels:
[1] = tested on: 5 breast (MDA-MB-231, MDA-MB-436, MDA-MB-468, BT-549 and MCF-7) and 3 prostate (22Rv1, DU145 and LNCaP) cancer cell lines; experiment: Western blot in 8 additional cancer cell lines; type: cell-based, human; conditions: treated for 24 h, all 8 cancer cell lines
Protocol: (§1) Western blot assay: Proteins were harvested in RIPA buffer, then electrophoresed on 4-20% gradient SDS-PAGE gels (Invitrogen, Grand Island, N.Y.) and transferred to PVDF membranes. The membranes were blocked in 5% milk and then incubated with specific primary antibody, followed by secondary antibody. The signals were visualized with the chemiluminescent HRP antibody detection reagent (Deville Scientific, Metuchen, N.J.).

[2] = tested on: Bcl-2 family proteins in 2LMP cells; experiment: Western blot of whole cell lysates; type: cell-based, human
Protocol: as §1

[3] = tested on: Bcl-2 family proteins in PC-3 cells; experiment: Western blot of whole cell lysates; type: cell-based, human; conditions: 10 μM
Protocol: as §1

[4] = tested on: RKO colon cancer cells; experiment: Cell death after c-Myc knock-down; type: cell-based; conditions: p53 wild-type, c-Myc siRNA
Protocol: (§2) Cell Growth, Cell Death, and Apoptosis: Cell growth inhibition by (−)-gossypol was determined in a water-soluble tetrazolium (WST)-based assay, as described previously (Shangary et al., Proc. Natl. Acad. Sci. USA 105:3933 (2008)). Cell viability was determined by trypan blue due exclusion as described (Shangary et al., Proc. Natl. Acad. Sci. USA 105:3933 (2008)). Experiments were done in triplicate. To examine apoptosis, cells were stained with Annexin V and PI and analyzed by flow cytometery using an Annexin V-FITC staining kit (Roche Applied Science, Indianapolis, Ind.) according to manufacturer's instructions. Briefly, cells were treated and collected by centrifugation, washed with PBS once and then stained with annexinV-FITC and PI for 15 min at room temperature in the dark. Stained cells were analyzed in a FACS caliber flow cytometer. AnnexinV positive cells are considered as apoptotic cells.
RNA interference: Gene specific double-stranded RNA oligonucleotide targeting Noxa, Puma, c-Myc, HIF1-α, E2F1#2, Bax, Bak, were purchased from Dharmacon RNAi technologies as Sigenome on-targetplus SMARTpool duplex (Lafayette, Colo.). SiRNA of E2F#1 was purchased from Santa Cruz. As a negative control, siRNA against GFP target sequence 5′-[…]-3′ was employed (Qiagen, Valencia, Calif.). […]

[5] = tested on: HMEC cells; experiment: Cell death (trypan blue) and western blot in normal cells; type: cell-based, human
Protocol: as §2, §1

[6] = tested on: MCF-12F cells; experiment: as above; type: cell-based, human
Protocol: as §2, §1

[7] = tested on: FF (fibroblast) cells; experiment: as above; type: cell-based, human
Protocol: as §2, §1

## Cc1cc2c(C(C)C)c(O)c(O)c(C=O)c2c(O)c1-c1c(C)cc2c(C(C)C)c(O)c(O)c(C=O)c2c1O [(−)-gossypol]
[1]
  lowest concentration with significant upregulation of Noxa: 2.5 µM
[2]; 10 μM
  earliest time of clear Noxa protein induction: 4 h
  earliest time of dramatic induction of the short forms of Mcl-1: 8 h
  time of Puma protein upregulation: 8 h
[2]; 10 μM, 12 h time-point
  Bcl-xL protein level: significant down-regulation
[2]; 24-h treatment (FIG. 8A)
  lowest concentration with clear induction of Noxa and Puma: 2.5 µM
[3]
  earliest time of clear Noxa protein induction: 4 h
  earliest time of dramatic induction of the short forms of Mcl-1: 8 h
  time of Puma protein upregulation: 8 h
[4]
  cell death induction upon c-Myc knock-down: effective blockage
[5]; 24-48 h treatment at 10 μM
  Noxa induction: not induced
[5]; compared to 2LMP cells
  cell death: minimal cell death
[6]; 24-48 h treatment at 10 μM
  Noxa induction: not induced
[6]; compared to 2LMP cells
  cell death: minimal cell death
[7]; 24-48 h treatment at 10 μM
  Noxa induction: not induced
[7]; compared to 2LMP cells
  cell death: minimal cell death

Reference: patent US20120302629A1, “BIOMARKERS FOR GOSSYPOL CHEMOTHERAPY AND METHODS OF TREATING DISEASE” (THE REGENTS OF THE UNIVERSITY OF MICHIGAN, priority 2009, published 2012)
